Experimental data taken from article PMC2754045 (Biochemistry, 2009).
Read-outs that look alike come from different tables or passages of the source. Marks after values point to notes of the source that are not given here. Bridges are numbered along the chain shown (N, C = ends). Where no end group is shown, it is not given here.

What was measured:
mTRΔ8 [1] = target: T1, mTRΔ8 (Mus musculus, UniProt Q9JLT4); experiment: Substrate reduction by truncated mammalian TR; type: biochemical; conditions: for pH optimum of substrate reduction: truncated Δ8 enzyme; for Reduction by the truncated enzyme (in words): direct reduction by the N-terminal reaction center
DmTRΔ8 [2] = target: T2, DmTRΔ8 (Drosophila melanogaster, UniProt P91938); experiment: Substrate reduction by truncated Drosophila TR; type: biochemical
[3] = cited from earlier work
DmTR-SCCS = DmTR-SCCS (Drosophila melanogaster, UniProt P91938); experiment: Substrate reduction by full-length Drosophila TR
mTR-GCUG [4] = target: T3, mTR-GCUG (Mus musculus, UniProt Q9JLT4); experiment: Substrate reduction by full-length wild type mammalian TR
mTR-GCUG [5] = target: T3, mTR-GCUG; experiment: Inhibition of TR by gold compounds; type: biochemical; conditions: full-length wild type (Sec) enzyme, 4 nM enzyme, 3 mM DTNB, pH 7.4
mTRΔ8 [6] = target: T1, mTRΔ8; experiment: Inhibition of TR by gold compounds; type: biochemical; conditions: truncated enzyme missing C-terminal tail, 2 nM enzyme, 3 mM DTNB, pH 7.4
mTR-GCCG = mTR-GCCG (Mus musculus, UniProt Q9JLT4); type: biochemical; conditions: full-length enzyme without Sec (Cys2 mutant), 4 nM enzyme, 3 mM DTNB, pH 7.4
DmTRΔ8 [7] = target: T2, DmTRΔ8; conditions: pH 7.0; cited from earlier work
mTRΔ8 [8] = target: T1, mTRΔ8; conditions: pH 7.0; cited from earlier work

T2 sequence (P91938 1-483 isoform P91938-2 limits assumed): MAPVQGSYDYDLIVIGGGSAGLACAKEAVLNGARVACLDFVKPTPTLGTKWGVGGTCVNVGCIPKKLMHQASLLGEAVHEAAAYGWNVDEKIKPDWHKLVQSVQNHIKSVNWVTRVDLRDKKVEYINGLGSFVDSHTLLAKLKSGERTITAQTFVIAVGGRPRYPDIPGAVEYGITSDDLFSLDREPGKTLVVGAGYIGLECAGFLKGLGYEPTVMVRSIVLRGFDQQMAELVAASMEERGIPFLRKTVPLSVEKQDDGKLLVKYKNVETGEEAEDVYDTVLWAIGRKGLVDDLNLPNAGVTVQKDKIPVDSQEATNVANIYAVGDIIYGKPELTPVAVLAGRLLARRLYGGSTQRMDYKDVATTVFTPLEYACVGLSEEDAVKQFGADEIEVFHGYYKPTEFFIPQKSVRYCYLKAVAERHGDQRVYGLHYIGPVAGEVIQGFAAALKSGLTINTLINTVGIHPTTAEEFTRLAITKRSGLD
DmTR-SCCS, sequence (P91938 1-491 isoform P91938-2): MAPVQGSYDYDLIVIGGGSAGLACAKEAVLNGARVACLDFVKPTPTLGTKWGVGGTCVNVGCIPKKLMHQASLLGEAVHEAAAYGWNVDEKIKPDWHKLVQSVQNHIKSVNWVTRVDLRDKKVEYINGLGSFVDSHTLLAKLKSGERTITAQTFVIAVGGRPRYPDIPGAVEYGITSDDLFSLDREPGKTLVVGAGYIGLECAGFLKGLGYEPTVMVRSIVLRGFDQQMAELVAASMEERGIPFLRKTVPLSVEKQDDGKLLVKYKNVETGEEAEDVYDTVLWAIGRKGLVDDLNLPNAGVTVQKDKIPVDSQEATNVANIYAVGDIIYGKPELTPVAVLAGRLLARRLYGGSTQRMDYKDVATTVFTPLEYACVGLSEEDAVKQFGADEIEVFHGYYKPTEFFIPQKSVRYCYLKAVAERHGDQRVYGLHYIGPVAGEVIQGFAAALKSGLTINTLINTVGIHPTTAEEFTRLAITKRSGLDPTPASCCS

O[C@@H]1CSSC[C@H]1O (relative stereo) [DTT(ox), trans-4,5-dihydroxy-1,2-dithiane]
Activity at 5 mM Substrate (mTRΔ8 [1]; pH 7.0): 0.234 mol NADPH/min/mol TR | Activity at 5 mM Substrate (DmTRΔ8 [2]; pH 7.0): 0.109 mol NADPH/min/mol TR | Leaving Group pKa [3]: 9.2 ^e

O=C(O)c1cc(SSc2ccc([N+](=O)[O-])c(C(=O)O)c2)ccc1[N+](=O)[O-] [DTNB, 5,5′dithio-bis(2-nitrobenzoic acid), reference compound]
Activity at 5 mM Substrate (mTRΔ8 [1]; pH 7.0): 2430 mol NADPH/min/mol TR | Activity at 5 mM Substrate (DmTRΔ8 [2]; pH 7.0): 519 mol NADPH/min/mol TR

N[C@@H](CCC(=O)N[C@@H](CSN=O)C(=O)NCC(=O)O)C(=O)O [GSNO, S-nitrosoglutathione]
Leaving Group pKa ([3]; HNO in GSNO): 4.7

O=C(O)CCCC[C@@H]1CCSS1 [Lipoic Acid, lipoic acid]
kcat increase compared to the WT enzyme at pH 7.0 (mTRΔ8 [1]; mTRΔ8 at pH 6.1): ~3.6 fold | Activity at 5 mM Substrate (mTRΔ8 [1]; pH 6.1): 102 mol NADPH/min/mol TR | Activity at 5 mM Substrate (mTRΔ8 [1]; pH 7.0): 87.7 mol NADPH/min/mol TR | pH optimum of substrate reduction (mTRΔ8 [1]): 6.1 | Turnover faster in comparison to DTT(ox) (DmTRΔ8 [2]; 5 mM substrate, pH 7.0): 190 fold | Activity at 5 mM Substrate (DmTRΔ8 [2]; pH 7.0): 20.8 mol NADPH/min/mol TR | pH optimum of substrate reduction (DmTRΔ8 [2]; truncated DmTRΔ8): ~7.5 | pH optimum of substrate reduction (DmTR-SCCS; full-length DmTR): ~7.5 | pH optimum of substrate reduction (mTR-GCUG [4]; full-length enzyme): ~7.5

CC(=O)OC[C@H]1O[C@@H]([S-])[C@H](OC(C)=O)[C@@H](OC(C)=O)[C@@H]1OC(C)=O.CCP(CC)CC.[Au+] [auranofin]
IC50 (mTR-GCUG [5]): 75 nM | IC50 (mTRΔ8 [6]): 850 nM

OC[C@H]1O[C@H]([S-])[C@H](O)[C@@H](O)[C@@H]1O.[Au+] [aurothioglucose]
IC50 (mTR-GCUG [5]): 83 nM | IC50 (mTR-GCCG): 142 nM | IC50 (mTRΔ8 [6]): 25 nM

N[C@@H](CSSC[C@H](N)C(=O)O)C(=O)O [cystine]
Reduction by the truncated enzyme (in words) (mTRΔ8 [1]): could not be reduced | Leaving Group pKa ([3]; thiolate): ~ 8.3 | Reduction by the WT enzyme (in words) (mTR-GCUG [4]): cannot be reduced

NC(=O)CCCCC1CCSS1 (centres unmarked) [lipoamide]
Higher activity in presence of 50 mM acetate (mTRΔ8 [1]; pH 6.1): 23.6% | Higher activity in presence of 50 mM acetate (mTRΔ8 [1]; pH 7.0): 17.5% | Drop in Km compared to lipoic acid (mTRΔ8 [1]; truncated enzyme): ~3 fold | pH optimum of substrate reduction (mTRΔ8 [1]): ~ 8.5

O=[Se]([O-])[O-].[Na+].[Na+] [selenite, sodium selenite]
Activity lower than the WT enzyme (mTRΔ8 [1]; mTRΔ8 versus WT, pH 7.0): 6 fold | pH optimum of substrate reduction (mTRΔ8 [1]): ~6.0

N[C@@H](C[Se][Se]C[C@H](N)C(=O)O)C(=O)O [selenocystine]
Reduction by the truncated enzyme (in words) (mTRΔ8 [1]): cannot directly reduce | pH optimum of substrate reduction (mTRΔ8 [1]): ~8.0 | Difference in activities between the mammalian enzyme and DmTR (DmTR-SCCS; pH 7.0, 91 μM substrate): ~ 3 fold

O=S(O)O [sulfite]
Activity as substrate (in words) (mTR-GCUG [4]; TR form not stated, data not shown): unable to detect activity

PTPASCCS(ox): Cys1-Cys2 vicinal disulfide peptide substrate of DmTR (disulfide 6-7)
Activity at 5 mM Substrate (DmTRΔ8 [7]): 233 mol NADPH/min/mol TR

PTVTGCCG(ox): peptide containing a Cys1-Cys2 vicinal disulfide bond (8-membered ring) (disulfide 6-7)
Activity at 5 mM Substrate (mTRΔ8 [8]): 0.153 mol NADPH/min/mol TR
